Assay results published in the supplement of paper PMC8149375.

Experiments:
Conditions in all cases: treatment: drug alone; 5 days
769-P [1] = experiment: GI50, drug alone; higher = less potent
Description: (§1)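 Primary HTS: 8 RCC cell lines treated with 8 doses (up to 10 uM) of each library drug alone for 5 days; viability read by CellTiter-Glo and normalised to DMSO. GI50 was fitted with XLfit (4-parameter), AUC is the area under the dose-response curve, and minimum viability is the lowest fraction of DMSO viability across doses.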

786-O [2] = experiment: GI50, drug alone; higher = less potent
Description: as §1

A498 [3] = experiment: GI50, drug alone; higher = less potent
Description: as §1

ACHN [4] = experiment: GI50, drug alone; higher = less potent
Description: as §1

CAKI-1 [5] = experiment: GI50, drug alone; higher = less potent
Description: as §1

SN12C [6] = experiment: GI50, drug alone; higher = less potent
Description: as §1

TK-10 [7] = experiment: GI50, drug alone; higher = less potent
Description: as §1

UO-31 [8] = experiment: GI50, drug alone; higher = less potent
Description: as §1

769-P [9] = experiment: minimum viability across doses, drug alone, relative to DMSO (fraction); higher = less growth inhibition
Description: as §1

786-O [10] = experiment: as above
Description: as §1

A498 [11] = experiment: as above
Description: as §1

ACHN [12] = experiment: as above
Description: as §1

CAKI-1 [13] = experiment: as above
Description: as §1

SN12C [14] = experiment: as above
Description: as §1

TK-10 [15] = experiment: as above
Description: as §1

UO-31 [16] = experiment: as above
Description: as §1

769-P [17] = experiment: AUC of dose-response viability curve, drug alone (arbitrary (AUC of normalised viability)); higher = less growth inhibition
Description: as §1

786-O [18] = experiment: as above
Description: as §1

A498 [19] = experiment: as above
Description: as §1

ACHN [20] = experiment: as above
Description: as §1

CAKI-1 [21] = experiment: as above
Description: as §1

SN12C [22] = experiment: as above
Description: as §1

TK-10 [23] = experiment: as above
Description: as §1

UO-31 [24] = experiment: as above
Description: as §1

Row | Structure (SMILES) | GI50, drug alone (769-P [1]) | GI50, drug alone (786-O [2]) | GI50, drug alone (A498 [3]) | GI50, drug alone (ACHN [4]) | GI50, drug alone (CAKI-1 [5]) | GI50, drug alone (SN12C [6]) | GI50, drug alone (TK-10 [7]) | GI50, drug alone (UO-31 [8]) | minimum viability across doses (769-P [9]) | minimum viability across doses (786-O [10]) | minimum viability across doses (A498 [11]) | minimum viability across doses (ACHN [12]) | minimum viability across doses (CAKI-1 [13]) | minimum viability across doses (SN12C [14]) | minimum viability across doses (TK-10 [15]) | minimum viability across doses (UO-31 [16]) | AUC of dose-response viability curve (769-P [17]) | AUC of dose-response viability curve (786-O [18]) | AUC of dose-response viability curve (A498 [19]) | AUC of dose-response viability curve (ACHN [20]) | AUC of dose-response viability curve (CAKI-1 [21]) | AUC of dose-response viability curve (SN12C [22]) | AUC of dose-response viability curve (TK-10 [23]) | AUC of dose-response viability curve (UO-31 [24])
1 | Cc1cnc(Nc2ccc(OCCN3CCCC3)cc2)nc1Nc1cccc(S(=O)(=O)NC(C)(C)C)c1 | 3.4 µM | 1.9 µM | 5.64 µM | 0.662 µM | 1.03 µM | 2.31 µM | 0.758 µM | 2.74 µM | 0.0319 | 0.00721 | 0.0772 | 0.00347 | 0.00962 | 0.00707 | 0.00422 | 0.013 | 3.09 | 2.76 | 3.49 | 2.25 | 2.54 | 2.71 | 2.19 | 3.79
2 | Cc1cccc(-c2nc(C(C)(C)C)[nH]c2-c2ccc3nccnc3c2)n1 | > 10 µM | > 10 µM | 9.45 µM | > 10 µM | > 10 µM | 5.55 µM | > 10 µM | > 10 µM | 0.795 | 0.589 | 0.302 | 0.87 | 0.603 | 0.21 | 0.676 | 0.569 | 3.25 | 2.63 | 3.88 | 3.38 | 3.35 | 3.02 | 2.9 | 5.79
3 | Cc1ccc(NC(=O)c2cccc(N(C)C)c2)cc1NC(=O)c1ccc(O)cc1 | > 10 µM | > 10 µM | > 10 µM | > 10 µM | > 10 µM | > 10 µM | > 10 µM | > 10 µM | 0.92 | 0.535 | 0.864 | 0.816 | 0.984 | 0.845 | 0.677 | 0.895 | 3.39 | 2.5 | 4.56 | 3.32 | 3.64 | 3.31 | 2.59 | 4.13
4 | Cc1[nH]c(/C=C2/C(=O)Nc3ccc(S(=O)(=O)N(C)c4cccc(Cl)c4)cc32)c(C)c1C(=O)N1CCN(C)CC1 | > 10 µM | 5.22 µM | > 10 µM | 0.0547 µM | 8.22 µM | 8.02 µM | > 10 µM | > 10 µM | 0.763 | 0.265 | 0.916 | 0.247 | 0.425 | 0.412 | 0.753 | 1.15 | 3.4 | 2.76 | 3.89 | 2.06 | 3.3 | 3.01 | 3.36 | 4.97
5 | CC(C)(C)c1cnc(CSc2cnc(NC(=O)C3CCNCC3)s2)o1 | 1.44 µM | 0.134 µM | 0.147 µM | 0.258 µM | 0.558 µM | 0.149 µM | 0.501 µM | 0.269 µM | 0.0214 | 0.0038 | 0.00845 | 0.00527 | 0.0689 | 0.012 | 0.156 | 0.0096 | 2.51 | 1.5 | 1.58 | 1.76 | 2.39 | 1.69 | 2.22 | 1.87
6 | CNC(=O)Nc1ccc(-c2nc(N3CC4CCC(C3)O4)c3cnn(C4CCC5(CC4)OCCO5)c3n2)cc1 | 0.122 µM | 0.0414 µM | 0.23 µM | 0.0587 µM | 0.0567 µM | 0.0971 µM | 0.0812 µM | 0.0343 µM | 0.101 | 0.00279 | 0.09 | 0.0487 | 0.042 | 0.126 | 0.0905 | 0.00242 | 1.66 | 1.25 | 2.28 | 1.4 | 1.31 | 1.64 | 1.52 | 1.01
7 | Nc1nc(N)c2nc(-c3cccc(O)c3)cnc2n1 | > 10 µM | 2.47 µM | 9.22 µM | 5.79 µM | 6.29 µM | 3.88 µM | 5.11 µM | > 10 µM | 0.971 | 0.0664 | 0.252 | 0.35 | 0.275 | 0.254 | 0.32 | 0.588 | 3.59 | 2.45 | 3.31 | 3.02 | 3.43 | 2.97 | 2.98 | 4.59
8 | NC(=O)c1ccc(-c2nc(-c3ccc4c(c3)OCO4)c(-c3ccccn3)[nH]2)cc1 | > 10 µM | > 10 µM | > 10 µM | > 10 µM | > 10 µM | > 10 µM | > 10 µM | > 10 µM | 0.838 | 0.578 | 0.906 | 0.564 | 0.723 | 0.556 | 0.613 | 0.941 | 3.26 | 2.72 | 3.96 | 3.21 | 3.3 | 2.86 | 2.89 | 4.85
9 | Nc1ccc(C(=O)Nc2cccc(-c3nc(N4CCOCC4)c4oc5ncccc5c4n3)c2)cn1 | 3.14 µM | 1.11 µM | > 10 µM | 1.87 µM | 1.19 µM | 8.23 µM | 1.7 µM | 8.08 µM | 0.0884 | 0.00412 | 0.527 | 0.207 | 0.153 | 0.46 | 0.11 | 0.0163 | 3.04 | 2.4 | 4.39 | 2.63 | 2.63 | 3 | 2.64 | 5.57
10 | O=C1c2ccccc2-c2n[nH]c3cccc1c23 | > 10 µM | > 10 µM | > 10 µM | 8.89 µM | 6.06 µM | > 10 µM | > 10 µM | > 10 µM | 0.799 | 0.545 | 0.999 | 0.421 | 0.251 | 0.822 | 0.562 | 0.52 | 3.24 | 2.81 | 4.19 | 3.44 | 3.09 | 3.37 | 3.07 | 3.08
11 | C[C@@H]1CCN(C(=O)CC#N)C[C@@H]1N(C)c1ncnc2[nH]ccc12 | > 10 µM | > 10 µM | > 10 µM | > 10 µM | > 10 µM | > 10 µM | > 10 µM | > 10 µM | 0.988 | 0.804 | 0.909 | 0.893 | 0.98 | 0.935 | 0.806 | 0.876 | 3.63 | 3.54 | 3.8 | 3.3 | 3.66 | 3.63 | 3.14 | 4.6
12 | CN(C)CCOc1ccc(-c2nc(-c3ccncc3)c(-c3ccc4c(c3)CC/C4=N/O)[nH]2)cc1 | 8.71 µM | 7.91 µM | 8.04 µM | 8.61 µM | 9.32 µM | > 10 µM | > 10 µM | > 10 µM | 0.177 | 0.0071 | 0.0435 | 0.167 | 0.308 | 0.706 | 0.575 | 0.573 | 3.44 | 2.94 | 4.26 | 3.51 | 3.77 | 3.3 | 3.35 | 5.65
13 | COc1cc2c(Nc3ccc(NC(=O)c4ccccc4)cc3)ncnc2cc1OCCCN1CCOCC1 | 5.72 µM | 2 µM | > 10 µM | 3.42 µM | 2.63 µM | > 10 µM | 4.2 µM | 9.01 µM | 0.24 | 0.00931 | 0.722 | 0.152 | 0.108 | 0.537 | 0.243 | 0.175 | 3.12 | 2.52 | 4.49 | 2.57 | 3.03 | 2.89 | 2.86 | 4.2
14 | C[C@@H](N)[C@H]1CC[C@H](C(=O)Nc2ccncc2)CC1.Cl.Cl | > 10 µM | > 10 µM | > 10 µM | > 10 µM | > 10 µM | > 10 µM | > 10 µM | > 10 µM | 0.895 | 0.802 | 0.87 | 0.908 | 0.859 | 0.909 | 0.887 | 0.96 | 3.37 | 3.36 | 3.58 | 3.73 | 3.45 | 3.55 | 3.46 | 4.59
15 | CC1CCN(C(=O)CC#N)C[C@@H]1N(C)c1ncnc2[nH]ccc12.O=C(O)CC(O)(CC(=O)O)C(=O)O (stereo in doubt) | > 10 µM | > 10 µM | > 10 µM | > 10 µM | > 10 µM | > 10 µM | > 10 µM | > 10 µM | 0.938 | 0.614 | 0.817 | 0.771 | 0.918 | 0.854 | 0.797 | 0.897 | 3.66 | 2.72 | 3.54 | 3.18 | 3.73 | 3.23 | 3.16 | 4.05
16 | O=C1NC(=O)C(=Cc2ccc(-c3ccc(F)cc3)o2)S1 (stereo in doubt) | > 10 µM | > 10 µM | > 10 µM | > 10 µM | > 10 µM | > 10 µM | > 10 µM | 7.95 µM | 0.859 | 0.566 | 0.852 | 0.871 | 0.882 | 0.82 | 0.81 | 0.311 | 3.33 | 2.4 | 3.71 | 3.47 | 3.34 | 3.23 | 3.07 | 3.29
17 | CO[C@H]1C[C@H]2CC[C@@H](C)[C@@](O)(O2)C(=O)C(=O)N2CCCC[C@H]2C(=O)O[C@H]([C@H](C)C[C@@H]2CC[C@H](OP(C)(C)=O)[C@H](OC)C2)CC(=O)[C@H](C)/C=C(\C)[C@@H](O)[C@@H](OC)C(=O)[C@H](C)C[C@H](C)/C=C/C=C/C=C/1C (stereo in doubt) [Deforolimus (Ridaforolimus)] | > 10 µM | < 0.003 µM | > 10 µM | 0.559 µM | 1.07 µM | 0.454 µM | > 10 µM | 0.00775 µM | 0.607 | 0.271 | 0.636 | 0.409 | 0.456 | 0.443 | 0.542 | 0.0878 | 2.66 | 1.24 | 2.6 | 1.98 | 2.1 | 2.23 | 2.42 | 0.965
18 | CO[C@H]1CC2CC[C@@H](C)[C@@](O)(O2)C(=O)C(=O)N2CCCC[C@H]2C(=O)O[C@H]([C@H](C)C[C@@H]2CCC(OC(=O)C(C)(CO)CO)[C@H](OC)C2)CC(=O)[C@H](C)/C=C(\C)[C@@H](O)[C@@H](OC)C(=O)[C@H](C)C[C@H](C)/C=C/C=C/C=C/1C (stereo in doubt) [Temsirolimus (Torisel)] | > 10 µM | < 0.003 µM | > 10 µM | 0.386 µM | 1.27 µM | > 10 µM | 3.9 µM | 0.0803 µM | 0.62 | 0.294 | 0.641 | 0.407 | 0.433 | 0.578 | 0.486 | 0.299 | 2.8 | 1.31 | 2.57 | 2.03 | 2.15 | 2.31 | 2.39 | 1.58
